From patent US5800838A, “Composition that inhibits or destroys at least one unicellular living organism containing fluorine F- and Lithium li+” (priority 1987, dated 1998)
Like-named read-outs stand apart in the source and are kept apart here.

How the values were obtained:
[1] = system: Pseudomonas aeruginosa; experiment: MIC on 200 wild-type strains of Pseudomonas aeruginosa (Examples 19 and 20); type: cell-based; conditions: Pseudomonas aeruginosa
Method: With the same methodology as above, the MIC values of benzalkonium chloride alone, in the presence of the KATHON CG (registered trademark) preservative (1 mg/l), and then in the presence of KATHON CG (registered trademark) (1 mg/l) and lithium fluoride (1 mg/l), were determined. 200 wild-type strains of Pseudomonas aeruginosa were tested.
The same trial as in Example 19 was performed, but with nonoxinol 9 as the primary active principle: 200 wild-type strains of Pseudomonas aeruginosa were also tested.

[2] = system: Ducrey's bacillus; experiment: MIC on hospital strains (Example 13); type: cell-based; conditions: read-out: MIC of benzalkonium chloride
Method: (§1) The same trials as in example 12 were carried out on hospital strains of various microorganisms.

[3] = system: Staphylococcus aureus; experiment: MIC on hospital strains (Example 13); type: cell-based; conditions: read-out: MIC of benzalkonium chloride
Method: as §1

[4] = system: Candida albicans; experiment: MIC on hospital strains (Example 13); type: cell-based; conditions: read-out: MIC of benzalkonium chloride
Method: as §1

[5] = system: Neisseria gonorrhoea; experiment: MIC on hospital strains (Example 13); type: cell-based; conditions: read-out: MIC of benzalkonium chloride
Method: as §1

[6] = system: Escherichia coli; experiment: MIC on hospital strains (Example 13); type: cell-based; conditions: read-out: MIC of benzalkonium chloride
Method: as §1

[7] = system: Bacillus subtilis; experiment: MIC on hospital strains (Example 13); type: cell-based; conditions: read-out: MIC of benzalkonium chloride
Method: as §1

[8] = system: Gardenerella vaginalis; experiment: MIC on hospital strains (Example 13); type: cell-based; conditions: read-out: MIC of benzalkonium chloride
Method: as §1

[9] = system: Trichomonas vaginalis; experiment: MIC on hospital strains (Example 13); type: cell-based; conditions: read-out: MIC of benzalkonium chloride
Method: as §1

[10] = system: Streptococcus faecalis; experiment: MIC on hospital strains (Example 13); type: cell-based; conditions: Enterococcus faecalis, read-out: MIC of benzalkonium chloride
Method: as §1

[11] = system: Sarcina lutea; experiment: MIC on hospital strains (Example 13); type: cell-based; conditions: Micrococcus luteus, read-out: MIC of benzalkonium chloride
Method: as §1

[12] = system: Aspergillus niger; experiment: MIC on hospital strains (Example 13); type: cell-based; conditions: read-out: MIC of benzalkonium chloride
Method: as §1

[13] = system: Pseudomonas aeruginosa CNCM A 22; conditions: cited from earlier work
[14] = system: Streptococcus; experiment: MIC on wild-type hospital strains (Example 6); type: cell-based; conditions: 6 strains
Method: (§2) The MIC of benzalkonium chloride, alone and in the presence of LiF at a concentration of 1 mg/l, was determined with respect to other wild-type strains originating from hospital sources namely Streptococcus (6 strains). Staphylococcus aureus (8 strains). Salmonella typhimurium (3 strains) and Sarcina lutea (1 strain).

[15] = system: Staphylococcus aureus; experiment: MIC on wild-type hospital strains (Example 6); type: cell-based; conditions: in the presence of LiF at 1 mg/l, 8 strains
Method: as §2

[16] = system: Salmonella typhimurium; experiment: MIC on wild-type hospital strains (Example 6); type: cell-based; conditions: Salmonella enterica, 3 strains
Method: as §2

[17] = system: Sarcina lutea; experiment: MIC on wild-type hospital strains (Example 6); type: cell-based; conditions: Micrococcus luteus, 1 strain
Method: as §2

[18] = system: Haemophilus influenzae; experiment: MIC on hospital strains of pyogenic microorganisms; type: cell-based; conditions: read-out: MIC of the primary active principle
Source text: (§3) The methodology employed is that described by Professor F. CATALAN, P. SEDNAOUI, A. MILOVANOVIC et al., Institut A. FOURNIER, PARIS.
(§4) With the same methodology, the following results were observed on hospital strains of pyogenic microorganisms, namely […] streptococcus, Proteus vulgaris, Haemophilus influenzae: […]

[19] = system: β-Haemolytic streptococcus; experiment: MIC on hospital strains of pyogenic microorganisms; type: cell-based; conditions: read-out: MIC of the primary active principle
Source text: as §3, §4

[20] = system: Proteus vulgaris; experiment: MIC on hospital strains of pyogenic microorganisms; type: cell-based; conditions: read-out: MIC of the primary active principle
Source text: as §3, §4

[21] = system: Escherichia coli CNCM 54 127; conditions: cited from earlier work
[22] = system: Staphylococcus aureus Oxford strain CNCM 53 154; conditions: cited from earlier work
[23] = in the presence of LiF at 1 ppm
[24] = in the presence of NaF at 1 mg/l
[25] = in the presence of LiF at 1 mg/l
[26] = in the presence of LiF at 1 mg/l and of KATHON CG preservative at 0.4 mg/l

SMILES: CCCCCCCCCCCCCC[N+](C)(C)Cc1ccccc1.[Cl-] [benzalkonium chloride, myristyldimethylbenzylammonium chloride]
- MIC ([1]; + KATHON CG (1 mg/l) + LiF (1 mg/l), strain Tic R βLac^+): 16 µg/mL
- MIC ([1]; + KATHON CG (1 mg/l) + LiF (1 mg/l), strain Tic R βLac^+ OXA): 16 µg/mL
- MIC ([1]; + KATHON CG (1 mg/l) + LiF (1 mg/l), strain Tic R βLac^+ PSE): 32 µg/mL
- MIC ([1]; + KATHON CG (1 mg/l) + LiF (1 mg/l), strain Tic R βLac^+ TEM): 32 µg/mL
- MIC ([1]; + KATHON CG (1 mg/l) + LiF (1 mg/l), strain Tic R βLac^+ cephalosporinase): 32 µg/mL
- MIC ([1]; + KATHON CG (1 mg/l) + LiF (1 mg/l), strain Tic S βLac^-): 16 µg/mL
- MIC ([1]; + KATHON CG (1 mg/l), strain Tic R βLac^+ OXA, read-out: MIC): 32 µg/mL
- MIC ([1]; + KATHON CG (1 mg/l), strain Tic R βLac^+ PSE, read-out: MIC): 64 µg/mL
- MIC ([1]; + KATHON CG (1 mg/l), strain Tic R βLac^+ TEM, read-out: MIC): 32 µg/mL
- MIC ([1]; + KATHON CG (1 mg/l), strain Tic R βLac^+ cephalosporinase, read-out: MIC): 128 µg/mL
- MIC ([1]; + KATHON CG (1 mg/l), strain Tic R βLac^+, read-out: MIC): 32 µg/mL
- MIC ([1]; + KATHON CG (1 mg/l), strain Tic S βLac^-, read-out: MIC): 16 µg/mL
- MIC ([1]; alone, strain Tic R βLac^+): 64 µg/mL
- MIC ([1]; alone, strain Tic R βLac^+ OXA, read-out: MIC): 64 µg/mL
- MIC ([1]; alone, strain Tic R βLac^+ PSE, read-out: MIC): 64 µg/mL
- MIC ([1]; alone, strain Tic R βLac^+ TEM, read-out: MIC): 32 µg/mL
- MIC ([1]; alone, strain Tic R βLac^+ cephalosporinase, read-out: MIC): 128 µg/mL
- MIC ([1]; alone, strain Tic S βLac^-, read-out: MIC): 32 µg/mL
- MIC ([2]; alone): 75 µg/mL
- MIC [2, 23]: 62 µg/mL
- MIC ([3]; alone): 1.56 µg/mL
- MIC [3, 23]: 1 µg/mL
- MIC ([4]; alone): 50 µg/mL
- MIC [4, 23]: 35 µg/mL
- MIC ([5]; alone): 1.15 µg/mL
- MIC [5, 23]: 0.6 µg/mL
- MIC ([6]; alone): 8 µg/mL
- MIC [6, 23]: 6.5 µg/mL
- MIC ([7]; alone): 8 µg/mL
- MIC [7, 23]: 5.4 µg/mL
- MIC ([8]; alone): 50 µg/mL
- MIC [8, 23]: 41 µg/mL
- MIC ([9]; alone): 1.3 µg/mL
- MIC [9, 23]: 0.9 µg/mL
- MIC ([10]; alone): 15 µg/mL
- MIC [10, 23]: 9 µg/mL
- MIC ([11]; alone): 11 µg/mL
- MIC [11, 23]: 7.5 µg/mL
- MIC ([12]; alone): 85 µg/mL
- MIC [12, 23]: 80 µg/mL
- MIC of benzalkonium chloride ([13]; alone): 31.25 µg/mL
- MIC of benzalkonium chloride [13, 24]: 18 µg/mL
- MIC ([14]; alone): 18 to 20 µg/mL
- MIC [14, 25]: 10 µg/mL
- MIC [15]: 0.3 µg/mL
- MIC ([16]; alone): 17 µg/mL
- MIC [16, 25]: 12 µg/mL
- MIC ([17]; alone): 15 µg/mL
- MIC [17, 25]: 11 µg/mL
- MIC ([18]; alone): 200 µg/mL
- MIC [18, 26]: 150 µg/mL
- MIC ([19]; alone): 50 µg/mL
- MIC [19, 26]: 25 µg/mL
- MIC ([20]; alone): 25 µg/mL
- MIC [20, 26]: 18.5 µg/mL
- MIC of benzalkonium chloride ([21]; alone): 6.57 µg/mL
- MIC of benzalkonium chloride [21, 24]: 3 µg/mL
- MIC of benzalkonium chloride ([22]; alone): 1.56 µg/mL
- MIC of benzalkonium chloride [22, 24]: 1.1 µg/mL
